Experimental data reported in ChEMBL document CHEMBL1201862, “PubChem BioAssay data set” (2004).
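The compound was tested at five concentrations on cells cultured in 96-well plates, with a 48-hour exposure period. The concentration for 50% growth inhibition is given as GI50.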 Activity calls are given as the source filed them. Rule as the data show it: active = GI50 up to about 1.1 µM and inactive = higher.

How the values were obtained:
Assay in all cases: growth of human tumour cells (NCI), 48 h
CAKI-1 = tested on: CAKI-1
SF-539 = tested on: SF-539
U-251 = tested on: U-251
HCT-15 = tested on: HCT-15
COLO 205 = tested on: COLO 205
SNB-75 = tested on: SNB-75
SR = tested on: SR
OVCAR-8 = tested on: OVCAR-8
HL-60 = tested on: HL-60
SN12C = tested on: SN12C
SW-620 = tested on: SW-620
LOX IMVI = tested on: LOX IMVI
UO-31 = tested on: UO-31
786-0 = tested on: 786-0
HCC 2998 = tested on: HCC 2998
SF-268 = tested on: SF-268
KM12 = tested on: KM12
IGROV-1 = tested on: IGROV-1
HCT-116 = tested on: HCT-116
TK-10 = tested on: TK-10
MDA-MB-435 = tested on: MDA-MB-435
RXF 393 = tested on: RXF 393
SK-MEL-28 = tested on: SK-MEL-28
HOP-92 = tested on: HOP-92
MOLT-4 = tested on: MOLT-4
NCI-H522 = tested on: NCI-H522
A498 = tested on: A498
MCF7 = tested on: MCF7
OVCAR-3 = tested on: OVCAR-3
Hs-578T = tested on: Hs-578T
UACC-62 = tested on: UACC-62
MDA-MB-231 = tested on: MDA-MB-231
UACC-257 = tested on: UACC-257
SK-MEL-5 = tested on: SK-MEL-5
K562 = tested on: K562
OVCAR-4 = tested on: OVCAR-4
NCI-H226 = tested on: NCI-H226
BT-549 = tested on: BT-549
DU-145 = tested on: DU-145
SK-MEL-2 = tested on: SK-MEL-2
PC-3 = tested on: PC-3
OVCAR-5 = tested on: OVCAR-5
NCI/ADR-RES = tested on: NCI/ADR-RES
A549 = tested on: A549
SNB-19 = tested on: SNB-19
M14 = tested on: M14
MDA-N = tested on: MDA-N
SK-OV-3 = tested on: SK-OV-3
HT-29 = tested on: HT-29
NCI-H23 = tested on: NCI-H23
Malme-3M = tested on: Malme-3M
RPMI-8226 = tested on: RPMI-8226
EKVX = tested on: EKVX
NCI-H460 = tested on: NCI-H460
T47D = tested on: T47D
ACHN = tested on: ACHN
SF-295 = tested on: SF-295
CCRF-CEM = tested on: CCRF-CEM
HOP-62 = tested on: HOP-62

How did the GI50 (CAKI-1) turn out when N#Cc1c(O)n(-c2ccccc2)c(=O)c2c(N)n[nH]c12 was run?
The GI50 was 95.1 µM (inactive).

And the GI50 (SF-539)?
Its GI50 is > 100 µM (inactive).

What about the GI50 (U-251) of the same molecule?
Its GI50 is > 100 µM (inactive).

What about the GI50 (HCT-15) of the same molecule?
Its GI50 is > 100 µM.

What about the GI50 (COLO 205) of the same molecule?
Its GI50 is > 100 µM (inactive).

What about the GI50 (SNB-75) of the same molecule?
Its GI50 is > 100 µM (inactive).

And the GI50 (SR)?
The GI50 was > 100 µM (inactive).

What about the GI50 (OVCAR-8) of the same molecule?
The GI50 was > 100 µM (inactive).

And the GI50 (HL-60)?
The GI50 was > 100 µM (inactive).

And the GI50 (SN12C)?
Its GI50 is > 100 µM (inactive).

What about the GI50 (SW-620) of the same molecule?
The GI50 was 64.9 µM (inactive).

And the GI50 (LOX IMVI)?
Its GI50 is 21.5 µM (inactive).

What about the GI50 (UO-31) of the same molecule?
Its GI50 is > 100 µM (inactive).

And the GI50 (786-0)?
Its GI50 is > 100 µM (inactive).

What about the GI50 (HCC 2998) of the same molecule?
Its GI50 is > 100 µM (inactive).

What about the GI50 (SF-268) of the same molecule?
The GI50 was > 100 µM (inactive).

What about the GI50 (KM12) of the same molecule?
Its GI50 is 42.4 µM (inactive).

What about the GI50 (IGROV-1) of the same molecule?
Its GI50 is > 100 µM (inactive).

And the GI50 (HCT-116)?
The GI50 was > 100 µM (inactive).

And the GI50 (TK-10)?
The GI50 was > 100 µM (inactive).

And the GI50 (MDA-MB-435)?
Its GI50 is > 100 µM (inactive).

What about the GI50 (RXF 393) of the same molecule?
The GI50 was > 100 µM (inactive).

What about the GI50 (SK-MEL-28) of the same molecule?
The GI50 was > 100 µM (inactive).

And the GI50 (HOP-92)?
Its GI50 is > 100 µM (inactive).

What about the GI50 (MOLT-4) of the same molecule?
The GI50 was > 100 µM (inactive).

What about the GI50 (NCI-H522) of the same molecule?
Its GI50 is 69.8 µM (inactive).

What about the GI50 (A498) of the same molecule?
The GI50 was > 100 µM (inactive).

What about the GI50 (MCF7) of the same molecule?
The GI50 was > 100 µM (inactive).

And the GI50 (OVCAR-3)?
Its GI50 is > 100 µM (inactive).

What about the GI50 (Hs-578T) of the same molecule?
The GI50 was > 100 µM (inactive).

What about the GI50 (UACC-62) of the same molecule?
The GI50 was 31.3 µM (inactive).

And the GI50 (MDA-MB-231)?
Its GI50 is > 100 µM (inactive).

And the GI50 (UACC-257)?
The GI50 was > 100 µM (inactive).

What about the GI50 (SK-MEL-5) of the same molecule?
The GI50 was > 100 µM (inactive).

What about the GI50 (K562) of the same molecule?
Its GI50 is 56.4 µM (inactive).

What about the GI50 (OVCAR-4) of the same molecule?
The GI50 was > 100 µM (inactive).

And the GI50 (NCI-H226)?
The GI50 was > 100 µM (inactive).

And the GI50 (BT-549)?
Its GI50 is > 100 µM (inactive).

What about the GI50 (DU-145) of the same molecule?
The GI50 was > 100 µM (inactive).

What about the GI50 (SK-MEL-2) of the same molecule?
Its GI50 is > 100 µM (inactive).

What about the GI50 (PC-3) of the same molecule?
Its GI50 is > 100 µM (inactive).

What about the GI50 (OVCAR-5) of the same molecule?
The GI50 was > 100 µM (inactive).

What about the GI50 (NCI/ADR-RES) of the same molecule?
Its GI50 is > 100 µM (inactive).

What about the GI50 (A549) of the same molecule?
Its GI50 is > 100 µM (inactive).

And the GI50 (SNB-19)?
The GI50 was > 100 µM (inactive).

And the GI50 (M14)?
Its GI50 is > 100 µM (inactive).

And the GI50 (MDA-N)?
Its GI50 is > 100 µM (inactive).

And the GI50 (SK-OV-3)?
Its GI50 is > 100 µM (inactive).

And the GI50 (HT-29)?
The GI50 was > 100 µM (inactive).

And the GI50 (NCI-H23)?
The GI50 was > 100 µM (inactive).

And the GI50 (Malme-3M)?
The GI50 was > 100 µM (inactive).

And the GI50 (RPMI-8226)?
The GI50 was > 100 µM (inactive).

And the GI50 (EKVX)?
Its GI50 is > 100 µM (inactive).

And the GI50 (NCI-H460)?
Its GI50 is > 100 µM (inactive).

And the GI50 (T47D)?
The GI50 was > 100 µM (inactive).

O=C1CC(C(O)(C(F)(F)F)C(F)(F)Cl)CCC1C(O)(C(F)(F)F)C(F)(F)Cl (stereo not drawn) was tested. Which GI50 (CAKI-1) did it give?
Its GI50 is > 10 µM (inactive).

What about the GI50 (ACHN) of the same molecule?
Its GI50 is > 10 µM (inactive).

And the GI50 (SF-539)?
The GI50 was 7.18 µM (inactive).

What about the GI50 (U-251) of the same molecule?
The GI50 was > 10 µM (inactive).

And the GI50 (HCT-15)?
The GI50 was > 10 µM.

What about the GI50 (COLO 205) of the same molecule?
The GI50 was 4.6 µM (inactive).

And the GI50 (SNB-75)?
Its GI50 is 8.71 µM (inactive).

What about the GI50 (SR) of the same molecule?
The GI50 was > 10 µM (inactive).

And the GI50 (OVCAR-8)?
Its GI50 is > 10 µM (inactive).

What about the GI50 (HL-60) of the same molecule?
The GI50 was > 10 µM (inactive).

And the GI50 (SN12C)?
Its GI50 is > 10 µM (inactive).

And the GI50 (SW-620)?
Its GI50 is > 10 µM (inactive).

And the GI50 (LOX IMVI)?
The GI50 was > 10 µM (inactive).

What about the GI50 (786-0) of the same molecule?
The GI50 was > 10 µM (inactive).

And the GI50 (HCC 2998)?
The GI50 was > 10 µM (inactive).

What about the GI50 (SF-268) of the same molecule?
The GI50 was > 10 µM (inactive).

And the GI50 (KM12)?
Its GI50 is > 10 µM (inactive).

What about the GI50 (IGROV-1) of the same molecule?
Its GI50 is > 10 µM (inactive).

What about the GI50 (HCT-116) of the same molecule?
The GI50 was 7.19 µM (inactive).

What about the GI50 (TK-10) of the same molecule?
Its GI50 is > 10 µM (inactive).

What about the GI50 (MDA-MB-435) of the same molecule?
Its GI50 is > 10 µM (inactive).

What about the GI50 (RXF 393) of the same molecule?
The GI50 was 3.49 µM (inactive).

What about the GI50 (SK-MEL-28) of the same molecule?
The GI50 was > 10 µM (inactive).

What about the GI50 (HOP-92) of the same molecule?
The GI50 was 1.26 µM (inactive).

And the GI50 (MOLT-4)?
Its GI50 is > 10 µM (inactive).

And the GI50 (NCI-H522)?
The GI50 was 8.77 µM (inactive).

And the GI50 (SF-295)?
The GI50 was 7.5 µM (inactive).

And the GI50 (A498)?
The GI50 was 6.58 µM (inactive).

And the GI50 (MCF7)?
Its GI50 is 8.71 µM (inactive).

And the GI50 (OVCAR-3)?
The GI50 was > 10 µM (inactive).

What about the GI50 (Hs-578T) of the same molecule?
The GI50 was > 10 µM (inactive).

What about the GI50 (UACC-62) of the same molecule?
Its GI50 is 7.55 µM (inactive).

And the GI50 (MDA-MB-231)?
Its GI50 is > 10 µM (inactive).

And the GI50 (UACC-257)?
The GI50 was 4.18 µM (inactive).

What about the GI50 (SK-MEL-5) of the same molecule?
Its GI50 is > 10 µM (inactive).

What about the GI50 (CCRF-CEM) of the same molecule?
Its GI50 is > 10 µM (inactive).

What about the GI50 (K562) of the same molecule?
The GI50 was > 10 µM (inactive).

And the GI50 (OVCAR-4)?
The GI50 was > 10 µM (inactive).

What about the GI50 (NCI-H226) of the same molecule?
The GI50 was > 10 µM (inactive).

And the GI50 (BT-549)?
Its GI50 is > 10 µM (inactive).

What about the GI50 (DU-145) of the same molecule?
Its GI50 is > 10 µM (inactive).

And the GI50 (HOP-62)?
Its GI50 is > 10 µM (inactive).

What about the GI50 (SK-MEL-2) of the same molecule?
Its GI50 is 3.25 µM (inactive).

What about the GI50 (PC-3) of the same molecule?
The GI50 was 2.68 µM (inactive).

What about the GI50 (OVCAR-5) of the same molecule?
Its GI50 is > 10 µM (inactive).

And the GI50 (NCI/ADR-RES)?
Its GI50 is > 10 µM (inactive).

And the GI50 (A549)?
Its GI50 is > 10 µM (inactive).

And the GI50 (SNB-19)?
The GI50 was > 10 µM (inactive).

What about the GI50 (M14) of the same molecule?
The GI50 was > 10 µM (inactive).

What about the GI50 (MDA-N) of the same molecule?
The GI50 was > 10 µM (inactive).

And the GI50 (SK-OV-3)?
Its GI50 is > 10 µM (inactive).

And the GI50 (HT-29)?
Its GI50 is 5.78 µM (inactive).

What about the GI50 (NCI-H23) of the same molecule?
Its GI50 is 9.55 µM (inactive).

And the GI50 (Malme-3M)?
Its GI50 is > 10 µM (inactive).

What about the GI50 (RPMI-8226) of the same molecule?
Its GI50 is > 10 µM (inactive).

What about the GI50 (EKVX) of the same molecule?
Its GI50 is > 10 µM (inactive).

And the GI50 (NCI-H460)?
The GI50 was > 10 µM (inactive).

And the GI50 (T47D)?
The GI50 was > 10 µM (inactive).
